Laboratory results published in US4233304A, “Pyridoxine derivatives” (Crinos Industria Farmacobiologica S.p.A., priority 1978, dated 1980).

How the values were obtained:
[1] = Anti-inflammatory activity, caraganin-edema test according to Winter et al; assay type: in vivo; conditions: rat, vs controls
Excerpt: As referred above, the inventive compound of the instant invention show anti-inflammatory activity and moreover may show, although not necessarily, also analgesic and/or anti-pyretic activity. The anti-inflammatory activity of the novel compounds of the instant invention has been confirmed by means of the caraganin-edema test on the rat.
Caraganin-edema test according to Winter et al (Proc. Soc. Exp. Biol. Med., 111, 544, 1962) in the normal rat. […]

mouse = conditions: footnote (1) Adams S.S. et al., Tox. Appl. Pharmacol., 15, 310, 1969; cited from earlier work
[2] = Analgesic activity, test of Randall and Selitto; assay type: in vivo; conditions: rat, variation from algogenic stimulus vs controls
Protocol: Test of Randall and Selitto (Arch. Ing. Pharmacodyn., 111, 409, 1957) on the rat. The analgesic activity is expressed as a percent variation from the algogenic stimulus, after 3 and 5 hours with respect to the controls.

in vivo = conditions: rat, po
Protocol: The ulcer-causing activity has been determined by administering the substances per os to rats which have fasted 18 hours and evaluating the presence of gastric lesions 7 hours after the treatment. The UD50 has been determined according to Litchfield and Wilcoxon (J. Pharmacol. Exp. Ther. 96, 99, 1949).

[3] = Acute toxicity per os, single dose, LD50; conditions: mouse, in vivo, po
Protocol: The acute toxicity has been determined by administering the substances per os in a sole dose to the mouse after 18 hours of fasting. The LD50 has been determined according to Litchfield and Wilcoxon (J. Pharmacol. Exp. Ther. 96, 99, 1949).

Compound: CC(C)Cc1ccc(C(C)C(=O)O)cc1 (stereo not drawn) [2-(4-isobutylphenyl)-propionic acid, reference compound]
- Anti-inflammatory Inhibition ([1]; 12.5 mg/kg per os, 3 hrs): 33.6%
- Anti-inflammatory Inhibition ([1]; 12.5 mg/kg per os, 5 hrs): 16.5%
- Anti-inflammatory Inhibition ([1]; 25 mg/kg per os, 3 hrs): 43.9%
- Anti-inflammatory Inhibition ([1]; 25 mg/kg per os, 5 hrs): 19.3%
- Anti-inflammatory Inhibition ([1]; 50 mg/kg per os, 3 hrs): 54.2%
- Anti-inflammatory Inhibition ([1]; 50 mg/kg per os, 5 hrs): 26.6%
- Anti-inflammatory Inhibition ([1]; 100 mg/kg per os, 3 hrs): 49.5%
- Anti-inflammatory Inhibition ([1]; 100 mg/kg per os, 5 hrs): 32.1%
- LD50 per os/mouse (mouse): 800 mg/kg
- Analgesic activity Variation ([2]; 12.5 mg/kg per os, 3 hrs): +86.7%
- Analgesic activity Variation ([2]; 12.5 mg/kg per os, 5 hrs): +83.8%
- Analgesic activity Variation ([2]; 50 mg/kg per os, 3 hrs): +146.9%
- Analgesic activity Variation ([2]; 50 mg/kg per os, 5 hrs): +69.5%
- TD50 at 7 h (in vivo): 38 mg/kg

Compound: Cc1ncc(COC(=O)C(C)c2ccc(CC(C)C)cc2)c(CO)c1O (stereo not drawn) [2-(4-isobutyl-phenyl)-propionic pyridoxine 5-ester]
- LD50 [3]: > 2000 mg/kg
- Anti-inflammatory Inhibition ([1]; 6.25 mg/kg per os, 3 hrs): 27.1%
- Anti-inflammatory Inhibition ([1]; 6.25 mg/kg per os, 5 hrs): 24.8%
- Anti-inflammatory Inhibition ([1]; 12.5 mg/kg per os, 3 hrs): 41.1%
- Anti-inflammatory Inhibition ([1]; 12.5 mg/kg per os, 5 hrs): 28.4%
- Anti-inflammatory Inhibition ([1]; 25 mg/kg per os, 3 hrs): 48.6%
- Anti-inflammatory Inhibition ([1]; 25 mg/kg per os, 5 hrs): 37.6%
- Anti-inflammatory Inhibition ([1]; 50 mg/kg per os, 3 hrs): 55.1%
- Anti-inflammatory Inhibition ([1]; 50 mg/kg per os, 5 hrs): 42%
- Analgesic activity Variation ([2]; 12.5 mg/kg per os, 3 hrs): +61.2%
- Analgesic activity Variation ([2]; 12.5 mg/kg per os, 5 hrs): +71.4%
- Analgesic activity Variation ([2]; 50 mg/kg per os, 3 hrs): +129.6%
- Analgesic activity Variation ([2]; 50 mg/kg per os, 5 hrs): +134.3%
- TD50 at 7 h (in vivo): 365 mg/kg

Compound: Cc1ncc(COC(=O)C(C)c2ccc(CC(C)C)cc2)c2c1OC(C)(C)OC2 (stereo not drawn) [2-(4-isobutylphenyl)-propionic isopropylidenepyridoxine 5-ester]
- LD50 [3]: > 2200 mg/kg
- Anti-inflammatory Inhibition ([1]; 12.5 mg/kg per os, 3 hrs): 19.6%
- Anti-inflammatory Inhibition ([1]; 12.5 mg/kg per os, 5 hrs): 18.3%
- Anti-inflammatory Inhibition ([1]; 25 mg/kg per os, 3 hrs): 13.1%
- Anti-inflammatory Inhibition ([1]; 25 mg/kg per os, 5 hrs): 12.8%
- Anti-inflammatory Inhibition ([1]; 50 mg/kg per os, 3 hrs): 43.9%
- Anti-inflammatory Inhibition ([1]; 50 mg/kg per os, 5 hrs): 39.4%
- Anti-inflammatory Inhibition ([1]; 100 mg/kg per os, 3 hrs): 60.7%
- Anti-inflammatory Inhibition ([1]; 100 mg/kg per os, 5 hrs): 42.2%
- Analgesic activity Variation ([2]; 12.5 mg/kg per os, 3 hrs): +77.5%
- Analgesic activity Variation ([2]; 12.5 mg/kg per os, 5 hrs): +39.0%
- Analgesic activity Variation ([2]; 50 mg/kg per os, 3 hrs): +122.5%
- Analgesic activity Variation ([2]; 50 mg/kg per os, 5 hrs): +78.1%
- TD50 at 7 h (in vivo): > 400 mg/kg
